From PMC10419416, “Fighting Pseudomonas aeruginosa Infections: Antibacterial and Antibiofilm Activity of D-Q53 CecB, a Synthetic Analog of a Silkworm Natural Cecropin B Variant” (International Journal of Molecular Sciences, 2023)
Non-standard residues stand in square brackets, D forms with d. Residues, ends and D or L forms follow the SMILES beside them. No end group written: not given here.

Tests used:
[1] = system: P. aeruginosa ATCC 25668, mucoid strain; assay type: cell-based, Pseudomonas aeruginosa; details: for inhibitory effect on biofilm formation: 1/32 and 1/64 MIC, 24 h
Procedure: (§1) An ON bacterial culture was diluted to 2 × 10^6 cells/mL in an LB medium. 50 µL/well were seeded in a sterile non-treated polystyrene 96-well plate (Corning) and added with 50 µL LB medium containing serial dilutions of each compound (final concentrations of L- and D-Q53 CecB peptides: from 0.034 to 17.6 µM; final concentrations of tobramycin: 0.27 and 0.53 μM, and from 2.14 to 17 μM). Each condition was tested in three-six replicates. Wells containing untreated bacteria (negative controls) or LB medium only (blank) were followed in parallel. Each plate was incubated for 24 h at 37 °C without agitation. After washing twice, samples were stained with a 0.1% crystal violet solution for 20 min, washed three times, and incubated in 30% acetic acid for 20 min, as in [74]. Plates were read at 595 nm using a microplate reader. For each sample, the biofilm biomass percentage was calculated relative to that of the untreated control showing the highest OD value, set equal to 100%. Each experiment was performed at least twice.

[2] = system: P. aeruginosa ATCC 27853, non-mucoid strain; assay type: cell-based, Pseudomonas aeruginosa; details: for inhibitory effect on biofilm formation: 1/32 and 1/64 MIC, 24 h; for decrement in biofilm biomass (inhibition of biofilm formation): ATCC 27853, 24 h
Procedure: as §1

[3] = system: P. aeruginosa ATCC 25668 strain; assay: Motility assay (swimming, swarming, twitching); assay type: cell-based, Pseudomonas aeruginosa; details: 1/2 MIC L-Q53 CecB or 1/4 MIC D-Q53 CecB; for effect on swimming motility: 0.3% agar LB plates; for effect on swarming motility: 0.5% agar LB plates; for effect on twitching motility (bacterial growth area): 1% agar LB plates
Procedure: The motility assay was performed as in [36], with minor modifications. […] Inocula were performed with a sterile toothpick (i) within the medium to detect swimming, (ii) on the top of the medium to detect swarming, and (iii) on the bottom of the plate to detect twitching. Bacteria grown and plated in the absence of any peptide were processed as negative controls. Plates were incubated at 30 °C (for swimming and swarming) or 37 °C (for twitching) and monitored for 24–48 h. Plate images were taken with a digital camera. Post-acquisition analyses were performed with Fiji, an open-source image-processing package based on ImageJ (http://fiji.sc/wiki/index.php, downloaded on 4 April 2022). Swimming, swarming, and twitching data were obtained by calculating the area of the growing zone over the total area of each plate. Values were expressed as percentages. Each type of motility was evaluated in at least four independent experiments, each with one replica per condition.

[4] = system: P. aeruginosa ATCC 25668 strain; assay: EPS determination, phenol-sulfuric acid method; assay type: cell-based, Pseudomonas aeruginosa; details: 20 h incubation; 1/2 MIC L-Q53 CecB or 1/4 MIC D-Q53 CecB; OD490
Procedure: Experiments were performed in LB medium supplemented 2% glucose to enhance the EPS production, as in [46]. Five mL of bacterial cultures (1 × 10^6 cells/mL) were added to the same volume of the peptide at a dilution not-inhibiting the bacterial growth (final concentrations 1.1 and 0.55 µM for L- and D-Q53 CecB, respectively, as in Section 4.11) and incubated at 37 °C for 20 h with agitation (200 rpm). 10 mL of bacterial culture (5 × 10^5 cells/mL) without any peptide were grown in parallel. Samples were incubated at 37 °C for 20 h with agitation. Glucan levels were determined as in [46, 75] with some modifications. For each sample, 5 mL were centrifuged at 5000× g for 10 min, and supernatants were collected in clean tubes; pellets were washed twice in 2.5 mL autoclaved water and centrifuged at 5000× g for 10 min, collecting supernatants again. Three volumes of chilled absolute ethanol were added to the collected supernatants and placed at 4 °C ON to precipitate polysaccharides. After centrifugation at 10,000× g for 10 min, pellets were washed with chilled ethanol 70% and resuspended in 5 mL 0.1 M NaOH. Two mL of 5% aqueous solution of phenol and 5 mL of concentrated sulphuric acid were added. Mixtures were incubated 10 min at RT in the dark, vortexed 30 sec, placed in a water bath at 25 °C 20 min and read at 490 nm. The experiment was performed four times, each condition in duplicate.

[5] = system: human red blood cells (hRBCs); assay type: cell-based; details: for MHC (minimum hemolytic concentration causing 5% hemolysis of hRBCs): red cells of human, 1 h
Procedure: The peptide hemolytic activity was evaluated against human red blood cells (hRBCs) using the Haemolysis Assay Kit (HaemoScan, Groningen, The Netherlands), following the manufacturer’s instructions. 180 μL of hRBC solution were incubated 1 h at 37 °C with 20 μL of serially diluted L- and D-CecB Q53 peptides (final concentrations of 5, 10, 25, 50, 100, 200 µM) in triplicate. As hemolysis positive and negative controls, hRBC solutions incubated, respectively, with 0.2% Triton X and PBS, were followed in parallel. After centrifugation 10 min at 10,000× g, each supernatant was diluted 1:10 in the Assay Buffer and read at 450 nm with a microplate reader.
Hemolysis was evaluated according to the following equation: Hemolysis (%)=ODCecB−OD0/ODCtrl−OD0×100, where ODCecB is the OD in the presence of the peptide, ODCtrl is the OD of treated controls (0.2% Triton X), and OD0 is the background absorbance. The experiment was performed at least twice.

## RWKIFKKIEKMGRNIRDGIVKAGPAIQVLGSAKAI-NH2 [L-Q53 CecB]
[1]
  inhibitory effect on biofilm formation: did not show any significant inhibitory effect
[1]; ATCC 25668, 24 h
  decrement in biofilm biomass (inhibition of biofilm formation): 30 to 44%
[2]
  inhibitory effect on biofilm formation: did not show any significant inhibitory effect
  decrement in biofilm biomass (inhibition of biofilm formation): 30 to 60%
[3]
  effect on swimming motility: not able to affect
  effect on swarming motility: not able to affect
  effect on twitching motility (bacterial growth area): no effect
[4]
  effect on water-soluble EPS production: did not show any significant effect
[5]
  MHC (minimum hemolytic concentration causing 5% hemolysis of hRBCs): >200 µM

## CC[C@@H](C)[C@@H](NC(=O)[C@@H](C)NC(=O)[C@@H](CCCCN)NC(=O)[C@@H](C)NC(=O)[C@@H](CO)NC(=O)CNC(=O)[C@@H](CC(C)C)NC(=O)[C@H](NC(=O)[C@@H](CCC(N)=O)NC(=O)[C@H](NC(=O)[C@@H](C)NC(=O)[C@H]1CCCN1C(=O)CNC(=O)[C@@H](C)NC(=O)[C@@H](CCCCN)NC(=O)[C@H](NC(=O)[C@H](NC(=O)CNC(=O)[C@@H](CC(=O)O)NC(=O)[C@@H](CCCNC(=N)N)NC(=O)[C@H](NC(=O)[C@@H](CC(N)=O)NC(=O)[C@@H](CCCNC(=N)N)NC(=O)CNC(=O)[C@@H](CCSC)NC(=O)[C@@H](CCCCN)NC(=O)[C@@H](CCC(=O)O)NC(=O)[C@H](NC(=O)[C@@H](CCCCN)NC(=O)[C@@H](CCCCN)NC(=O)[C@@H](Cc1ccccc1)NC(=O)[C@H](NC(=O)[C@@H](CCCCN)NC(=O)[C@@H](Cc1c[nH]c2ccccc12)NC(=O)[C@H](N)CCCNC(=N)N)[C@H](C)CC)[C@H](C)CC)[C@H](C)CC)[C@H](C)CC)C(C)C)[C@H](C)CC)C(C)C)C(N)=O [D-Q53 CecB] (H-[dR][dW][dK][dI][dF][dK][dK][dI][dE][dK][dM]G[dR][dN][dI][dR][dD]G[dI][dV][dK][dA]G[dP][dA][dI][dQ][dV][dL]G[dS][dA][dK][dA][dI]-NH2; N-terminus and C-terminus assumed)
[1]
  inhibitory effect on biofilm formation: did not show any significant inhibitory effect
[1]; ATCC 25668, 24 h
  decrement in biofilm biomass (inhibition of biofilm formation): 30 to 44%
  mean decrement in biofilm biomass (inhibition of biofilm formation): 93%
[2]
  inhibitory effect on biofilm formation: did not show any significant inhibitory effect
  decrement in biofilm biomass (inhibition of biofilm formation): 30 to 60%
[3]
  effect on swimming motility: not able to affect
  effect on swarming motility: not able to affect
  effect on twitching motility (bacterial growth area): significant reductions
[4]
  effect on water-soluble EPS production: significantly reduce
[5]; 100 µM
  mean hemolysis: 5.9%
[5]
  MHC (minimum hemolytic concentration causing 5% hemolysis of hRBCs): 100 µM
